Assay results published in US20220235051A1, “DI-FLUORO AZEPANES AS HBV CAPSID ASSEMBLY MODULATORS” (priority 2019, published 2022).
pEC50: −log10 of the molar value. Read-outs that look alike come from different tables or passages of the source.

System: HBV
Experiment: HBV replication inhibition assay (BDNA assay) in HepG2.2.15 cells
Format: cell-based
Settings: Hepatitis B virus, HepG2.2.15, 144 h, read-out: HepG2.2.15 EC50 HBV DNA
Experimental: HBV replication inhibition by the disclosed compounds were determined in cells infected or transfected with HBV or cells with stably integrated HBV, such as HepG2.2.15 cells (Sells et al. 1987). In this example, HepG2.2.15 cells were maintained in cell culture medium containing 10% fetal bovine serum (FBS), Geneticin, L-glutamine, penicillin and streptomycin. HepG2.2.15 cells were seeded in 96-well plates at a density of 40,000 cells/well and were treated with serially diluted compounds at a final DMSO concentration of 0.5% either alone or in combination by adding drugs in a checker box format. Cells were incubated with compounds for three days, after which medium was removed and fresh medium containing compounds was added to cells and incubated for another three days. At day 6, supernatant was removed and treated with DNase at 37° C. for 60 minutes, followed by enzyme inactivation at 75° C. for 15 minutes. Encapsidated HBV DNA was released from the virions and covalently linked HBV polymerase by incubating in lysis buffer (Affymetrix QS0010) containing 2.5 μg proteinase K at 50° C. for 40 minutes. HBV DNA was denatured by addition of 0.2 M NaOH and detected using a branched DNA (BDNA) QuantiGene assay kit according to manufacturer recommendation (Affymetrix). HBV DNA levels were also quantified using qPCR, based on amplification of encapsidated HBV DNA extraction with QuickExtraction Solution (Epicentre Biotechnologies) and amplification of HBV DNA using HBV specific PCR probes that can hybridize to HBV DNA and a fluorescently labeled probe for quantitation. In addition, cell viability of HepG2.2.15 cells incubated with test compounds alone or in combination was determined by using CellTitre-Glo reagent according to the manufacturer protocol (Promega). The mean background signal from wells containing only culture medium was subtracted from all other samples, and percent inhibition at each compound concentration was calculated by normalizing to signals from HepG2.2.15 cells treated with 0.5% DMSO using equation E1.
% inhibition=(DMSOave−Xi)/DMSOave×100% E1
where DMSOave is the mean signal calculated from the wells that were treated with DMSO control (0% inhibition control) and Xi is the signal measured from the individual wells. EC50 values, effective concentrations that achieved 50% inhibitory effect, were determined by non-linear fitting using Graphpad Prism software (San Diego, Calif.) and equation E2.
Y=Ymin+(Ymax−Ymin)/(1+10(Log EC50−X)×HillSlope) E2
where Y represents percent inhibition values and X represents the logarithm of compound concentrations.
Selected disclosed compounds were assayed in the HBV replication assay (BDNA assay), as described above, and a representative group of these active compounds is shown in Table 3.

[1] = HepG2.2.15 cells, BDNA assay, encapsidated HBV DNA in supernatant at day 6

Compound `C[C@@H]1Cc2nn3c(c2CN1C(=O)Nc1ccc(F)c(C#N)c1)C(F)(F)CC[C@H](O)C3` [Example 71, (3R,8 S)-N-(3-Cyano-4-fluorophenyl)-11,11-difluoro-8-hydroxy-3-methyl-3,4,8,9,10,11-hexahydro-1H-pyrido[4′,3′:3,4]pyrazolo[1,5-a]azepine-2(7H)-carboxamide] has a pEC50 [1] of 8.70.

Work on `N#Cc1c(F)ccc(NC(=O)N2CCc3nn4c(c3C2)C(F)(F)CC[C@H](O)C4)c1F` [Example 6, (S)-N-(3-Cyano-2,4-difluorophenyl)-11,11-difluoro-8-hydroxy-3,4,8,9,10,11-hexahydro-1H-pyrido[4′,3′:3,4]pyrazolo[1,5-a]azepine-2(7H)-carboxamide] yielded a pEC50 [1] of 7.36.

Compound `N#Cc1cc(NC(=O)N2CCc3nn4c(c3C2)C(F)(F)CCC(O)(CF)C4)ccc1F` (stereo not shown) [Example 37, N-(3-Cyano-4-fluorophenyl)-11,11-difluoro-8-(fluoromethyl)-8-hydroxy-3,4,8,9,10,11-hexahydro-1H-pyrido[4′,3′:3,4]pyrazolo[1,5-a]azepine-2(7H)-carboxamide] has a pEC50 [1] of 7.82.

Compound `N#Cc1cc(NC(=O)N2CCc3nn4c(c3C2)C(F)(F)CCC(CNC(=O)C(F)(F)F)C4)ccc1F` (stereo not shown) [Example 51, N-(3-Cyano-4-fluorophenyl)-11,11-difluoro-8-((2,2,2-trifluoroacetamido)methyl)-3,4,8,9,10,11-hexahydro-1H-pyrido[4′,3′:3,4]pyrazolo[1,5-a]azepine-2(7H)-carboxamide] has a pEC50 of 7.49.

Work on `O=C(Nc1ccc(F)c(Br)c1F)N1CCc2nn3c(c2C1)C(F)(F)CC[C@H](O)C3` [Example 7, (S)-N-(3-Bromo-2,4-difluorophenyl)-11,11-difluoro-8-hydroxy-3,4,8,9,10,11-hexahydro-1H-pyrido[4′,3′:3,4]pyrazolo[1,5-a]azepine-2(7H)-carboxamide] yielded a pEC50 [1] of 7.51.

`O=C(Nc1ccnc(Br)c1F)N1CCc2nn3c(c2C1)C(F)(F)CCC(F)(CO)C3` (stereo not shown) [Example 46, N-(2-Bromo-3-fluoropyridin-4-yl)-8,11,11-trifluoro-8-(hydroxymethyl)-3,4,8,9,10,11-hexahydro-1H-pyrido[4′,3′:3,4]pyrazolo[1,5-a]azepine-2(7H)-carboxamide] gave a pEC50 [1] of 7.92.

In the case of `C#CC1(O)CCC(F)(F)c2c3c(nn2C1)C[C@@H](C)N(C(=O)Nc1ccnc(C(F)F)c1F)C3` (single isomer, unassigned) [Example 97, (3R,8R*)-N-(2-(Difluoromethyl)-3-fluoropyridin-4-yl)-8-ethynyl-11,11-difluoro-8-hydroxy-3-methyl-3,4,8,9,10,11-hexahydro-1H-pyrido[4′,3′:3,4]pyrazolo[1,5-a]azepine-2(7H)-carboxamide], the pEC50 [1] was 7.46.

Compound `C#C[C@]1(O)CCC(F)(F)c2c3c(nn2C1)C[C@@H](C)N(C(=O)Nc1ccnc(C(F)F)c1F)C3` (relative stereo) [Example 100, (3R,8S*)-N-(2-Difluoromethyl)-3-fluoropyridin-4-yl)-8-ethynyl-11,11-difluoro-8-hydroxy-3-methyl-3,4,8,9,10,11-hexahydro-1H-pyrido[4′,3′:3,4]pyrazolo[1,5-a]azepine-2(7H)-carboxamide] has a pEC50 [1] of 6.77.

`O=C(Nc1ccc(F)c(Br)c1F)N1CCc2nn3c(c2C1)C(F)(F)CC[C@@H](O)C3` [Example 12, (R)-N-(3-Bromo-2,4-difluorophenyl)-11,11-difluoro-8-hydroxy-3,4,8,9,10,11-hexahydro-1H-pyrido[4′,3′:3,4]pyrazolo[1,5-a]azepine-2(7H)-carboxamide] showed a pEC50 [1] of 7.72.

With `N#CCC1(O)CCC(F)(F)c2c3c(nn2C1)CCN(C(=O)Nc1ccc(F)c(C#N)c1)C3` (stereo not shown) [Example 40, N-(3-Cyano-4-fluorophenyl)-8-(cyanomethyl)-11,11-difluoro-8-hydroxy-3,4,8,9,10,11-hexahydro-1H-pyrido[4′,3′:3,4]pyrazolo[1,5-a]azepine-2(7H)-carboxamide] the pEC50 [1] was 7.89.

Work on `C[C@@H]1Cc2nn3c(c2CN1C(=O)Nc1ccnc(Br)c1F)C(F)(F)CC(O)(CF)CC3` (single isomer, unassigned) [Example 127, (3R,9R*)-N-(2-Bromo-3-fluoropyridin-4-yl)-11,11-difluoro-9-(fluoromethyl)-9-hydroxy-3-methyl-3,4,8,9,10,11-hexahydro-1H-pyrido[4′,3′:3,4]pyrazolo[1,5-a]azepine-2(7H)-carboxamide] yielded a pEC50 [1] of 8.30.

`N#Cc1cc(NC(=O)N2CCc3nn4c(c3C2)C(F)(F)CCC(F)(CO)C4)ccc1F` (stereo not shown) [Example 45, N-(3-Cyano-4-fluorophenyl)-8,11,11-trifluoro-8-(hydroxymethyl)-3,4,8,9,10,11-hexahydro-1H-pyrido[4′,3′:3,4]pyrazolo[1,5-a]azepine-2(7H)-carboxamide] showed a pEC50 [1] of 8.30.

Compound `C[C@@H]1Cc2nn3c(c2CN1C(=O)Nc1ccnc(Br)c1F)C(F)(F)CCC(O)(CC#N)C3` (single isomer, unassigned) [Example 89, (3R,8S*)-N-(2-Bromo-3-fluoropyridin-4-yl)-8-(cyanomethyl)-11,11-difluoro-8-hydroxy-3-methyl-3,4,8,9,10,11-hexahydro-1H-pyrido[4′,3′:3,4]pyrazolo[1,5-a]azepine-2(7H)-carboxamide] has a pEC50 [1] of 7.55.

With `C[C@@H]1Cc2nn3c(c2CN1C(=O)Nc1ccnc(Br)c1F)C(F)=CC(O)CC3` (single isomer, unassigned) [Example 123, (3R,9R*)-N-(2-Bromo-3-fluoropyridin-4-yl)-11-fluoro-9-hydroxy-3-methyl-3,4,8,9-tetrahydro-1H-pyrido[4′,3′:3,4]pyrazolo[1,5-a]azepine-2(7H)-carboxamide] the pEC50 [1] was 7.74.

For `C[C@@H]1Cc2nn3c(c2CN1C(=O)Nc1ccc(F)c(C#N)c1)C(F)(F)C[C@H](CO)CC3` [Example 131], the pEC50 [1] was 8.52.

`O=C(Nc1ccc(F)c(C(F)(F)F)c1)N1CCc2nn3c(c2C1)C(F)(F)CC[C@H](O)C3` [Example 4, (S)-11,11-Difluoro-N-(4-fluoro-3-(trifluoromethyl)phenyl)-8-hydroxy-3,4,8,9,10,11-hexahydro-1H-pyrido[4′,3′:3,4]pyrazolo[1,5-a]azepine-2(7H)-carboxamide] showed a pEC50 [1] of 7.43.

Work on `C[C@@H]1Cc2nn3c(c2CN1C(=O)Nc1ccc(F)c(C#N)c1)C(F)(F)CC(O)CC3` (single isomer, unassigned) [Example 119, (3R,9S*)-N-(3-Cyano-4-fluorophenyl)-11,11-difluoro-9-hydroxyl-3-methyl-3,4,8,9,10,11-hexahydro-1H-pyrido[4′,3′:3,4]pyrazolo[1,5-a]azepine-2(7H)-carboxamide] yielded a pEC50 [1] of 9.00.

`O=C(Nc1ccnc(Br)c1F)N1CCc2nn3c(c2C1)C(F)(F)CC[C@@H](O)C3` [Example 10, (R)-N-(2-Bromo-3-fluoropyridin-4-yl)-11,11-difluoro-8-hydroxy-3,4,8,9,10,11-hexahydro-1H-pyrido[4′,3′:3,4]pyrazolo[1,5-a]azepine-2(7H)-carboxamide] gave a pEC50 [1] of 7.49.

For `O=C(Nc1ccc(F)c(C(F)(F)F)c1)N1CCc2nn3c(c2C1)C(F)(F)CC[C@@H](O)C3` [Example 9, (R)-11,11-Difluoro-N-(4-fluoro-3-(trifluoromethyl)phenyl)-8-hydroxy-3,4,8,9,10,11-hexahydro-1H-pyrido[4′,3′:3,4]pyrazolo[1,5-a]azepine-2(7H)-carboxamide], the pEC50 [1] was 7.55.

`C[C@@H]1Cc2nn3c(c2CN1C(=O)Nc1ccc(F)c(C#N)c1)C(F)(F)CC(O)(CF)CC3` (single isomer, unassigned) [Example 128, (3R,9R*)-N-(3-Cyano-4-fluorophenyl)-11,11-difluoro-9-(fluoromethyl)-9-hydroxy-3-methyl-3,4,8,9,10,11-hexahydro-1H-pyrido[4′,3′:3,4]pyrazolo[1,5-a]azepine-2(7H)-carboxamide] gave a pEC50 [1] of 9.00.

With `CC(=O)NCC1CCC(F)(F)c2c3c(nn2C1)CCN(C(=O)Nc1ccnc(Br)c1F)C3` (stereo not shown) [Example 50, 8-(Acetamidomethyl)-N-(2-bromo-3-fluoropyridin-4-yl)-11,11-difluoro-3,4,8,9,10,11-hexahydro-1H-pyrido[4′,3′:3,4]pyrazolo[1,5-a]azepine-2(7H)-carboxamide] the pEC50 [1] was 6.96.

Work on `O=C(Nc1ccnc(Br)c1F)N1CCc2nn3c(c2C1)C(F)(F)CCC(O)(CF)C3` (single isomer, unassigned) [Example 38, (S*)-N-(2-Bromo-3-fluoropyridin-4-yl)-11,11-di fluoro-8-(fluoromethyl) -8-hydroxy-3,4,8,9,10,11-hexahydro-1H-pyrido[4′,3′:3,4]pyrazolo[1,5-a]azepine-2(7H)-carboxamide] yielded a pEC50 [1] of 7.08.
